Where a name gives a salt, the structure may show the parent alone.
Legend:
[1] = molecular target: isolated recombinant JAK1 kinase domain (Homo sapiens (Human), UniProt P23458); experiment: JAK1 enzyme assay (Caliper LabChip, peptide phosphorylation); type: biochemical; settings: isolated recombinant JAK1 kinase domain, 25 μM ATP
[2] = molecular target: isolated recombinant JAK2 kinase domain (Homo sapiens (Human), UniProt O60674); experiment: JAK2 enzyme assay (Caliper LabChip, peptide phosphorylation); type: biochemical; settings: 25 μM ATP
Chain of isolated recombinant JAK2 kinase domain (O60674 849-1124): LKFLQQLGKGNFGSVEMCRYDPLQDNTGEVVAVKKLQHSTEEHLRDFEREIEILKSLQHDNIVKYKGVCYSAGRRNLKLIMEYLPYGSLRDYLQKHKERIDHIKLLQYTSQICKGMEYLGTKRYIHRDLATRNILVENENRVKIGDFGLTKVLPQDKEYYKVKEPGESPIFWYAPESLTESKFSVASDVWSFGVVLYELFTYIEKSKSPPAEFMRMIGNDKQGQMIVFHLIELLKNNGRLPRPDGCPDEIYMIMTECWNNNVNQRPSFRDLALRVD

[3] = system: JAK1-dependent STAT6 phosphorylation downstream of IL-13 stimulation in BEAS-2B human bronchial epithelial cells; experiment: JAK1 pathway assay in BEAS-2B cells (IL-13-pSTAT6, MSD); type: cell-based; settings: read-out: IL13-pSTAT6 EC50 (uM)_BEAS-2B
Protocol: JAK1 Pathway Assay in Cell Lines was Carried Out as Follows:
Inhibitor potency (EC50) was determined in cell-based assays designed to measure JAK1 dependent STAT phosphorylation.
In one assay approach, TF-1 human erythroleukemia cells obtained from the American Type Culture Collection (ATCC; Manassas, Va.) were used to measure JAK1-dependent STAT6 phosphorylation downstream of IL-13 stimulation. Prior to use in the assays, TF-1 cells were starved of GM-CSF overnight in OptiMEM medium (Life Technologies, Grand Island, N.Y.) supplemented with 0.5% charcoal/dextran stripped fetal bovine serum (FBS), 0.1 mM non-essential amino acids (NEAA), and 1 mM sodium pyruvate. The assays were run in 384-well plates in serum-free OptiMEM medium using 300,000 cells per well. In a second assay approach, BEAS-2B human bronchial epithelial cells obtained from ATCC were plated at 100,000 cells per well of a 96-well plate one day prior to the experiment. The BEAS-2B assay was run in complete growth medium (bronchial epithelial basal medium plus bulletkit; Lonza; Basel, Switzerland).
Test compounds were serially diluted 1:2 in DMSO and then diluted 1:50 in medium just before use. Diluted compounds were added to the cells, for a final DMSO concentration of 0.2%, and incubated for 30 min (for the TF-1 assay) or 1 hr (for the BEAS-2B assay) at 37° C. Then, cells were stimulated with human recombinant cytokine at their respective EC90 concentrations, as previously determined for each individual lot. Cells were stimulated with IL-13 (R&D Systems, Minneapolis, Minn.) for 15 min at 37° C. The TF-1 cell reactions were stopped by the direct addition of 10× lysis buffer (Cell Signaling Technologies, Danvers, Mass.), whereas the BEAS-2B cell incubations were halted by the removal of medium and addition of 1× lysis buffer. The resultant samples were frozen in the plates at −80° C. Compound mediated inhibition of STAT6 phosphorylation was measured in the cell lysates using MesoScale Discovery (MSD) technology (Gaithersburg, Md.).

Chain of isolated recombinant JAK1 kinase domain (P23458 875-1153): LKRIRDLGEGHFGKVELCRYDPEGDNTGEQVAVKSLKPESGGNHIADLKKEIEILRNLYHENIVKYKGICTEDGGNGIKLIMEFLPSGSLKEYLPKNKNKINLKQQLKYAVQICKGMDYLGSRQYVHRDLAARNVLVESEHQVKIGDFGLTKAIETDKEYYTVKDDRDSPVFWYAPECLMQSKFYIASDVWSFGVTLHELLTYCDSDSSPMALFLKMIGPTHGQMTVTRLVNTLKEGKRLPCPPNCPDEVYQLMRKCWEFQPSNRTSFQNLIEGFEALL

Ki [1] [nM]	Ki [2] [nM]	Structure (SMILES)	EC50 [3] [µM]
0.4	0.32	CSCCNCCn1cc(NC(=O)c2cnn3cccnc23)c(-c2cc(Cl)ccc2OC(F)F)n1 [Example 312, N-[3-[5-chloro-2-(difluoromethoxy)phenyl]-1-(2-[[2-(methylsulfanyl)ethyl]amino]ethyl)-1H-pyrazol-4-yl]pyrazolo[1,5-a]pyrimidine-3-carboxamide]	0.0719
0.38	1.1	C[C@@H]1COCCN1C1CCN(C(=O)Cn2cc(NC(=O)c3cnn4cccnc34)c(-c3cc(Cl)ccc3OC(F)F)n2)CC1 [Example 449, N-(3-(5-chloro-2-(difluoromethoxy)phenyl)-1-(2-(4-((R)-3-methyl-morpholino)piperidin-1-yl)-2-oxoethyl)-1H-pyrazol-4-yl)pyrazolo[1,5-a]pyrimidine-3-carboxamide]	0.0136
0.84	2.22	COC(=O)C1(C)CCN(CCN2CCN(C(=O)Cn3cc(NC(=O)c4cnn5cccnc45)c(-c4cc(Cl)ccc4OC(F)F)n3)CC2)CC1 [Example 335, methyl 1-[2-[4-(2-[3-[5-chloro-2-(difluoromethoxy)phenyl]-4-[pyrazolo[1,5-a]pyrimidine-3-amido]-1H-pyrazol-1-yl]acetyl)piperazin-1-yl]ethyl]-4-methylpiperidine-4-carboxylate formate]	0.0121
1.25	0.73	O=C(O)CNC1CCN(CCn2cc(NC(=O)c3cnn4cccnc34)c(-c3cc(Cl)ccc3OC(F)F)n2)CC1 [Example 311, 2-[[1-(2-[3-[5-chloro-2-(difluoromethoxy)phenyl]-4-[pyrazolo[1,5-a]pyrimidine-3-amido]-1H-pyrazol-1-yl]ethyl)piperidin-4-yl]amino]acetic acid]	2.6
0.46	0.99	N#CCCN1CCN(C(=O)Cn2cc(NC(=O)c3cnn4cccnc34)c(-c3cc(Cl)ccc3OC(F)F)n2)CC1 [Example 406, N-(3-(5-chloro-2-(difluoromethoxy)phenyl)-1-(2-(4-(2-cyanoethyl)piperazin-1-yl)-2-oxoethyl)-1H-pyrazol-4-yl)pyrazolo[1,5-a]pyrimidine-3-carboxamide]	0.0333
0.45		O=C(Nc1cn(Cc2cn(C3CCN(C4CCOCC4)CC3)nn2)nc1-c1cc(Cl)ccc1OC(F)F)c1cnn2cccnc12 [Example 457, N-(3-(5-chloro-2-(difluoromethoxy)phenyl)-1-((1-(1-(tetrahydro-2H-pyran-4-yl)piperidin-4-yl)-1H-1,2,3-triazol-4-yl)methyl)-1H-pyrazol-4-yl)pyrazolo[1,5-a]pyrimidine-3-carboxamide]	0.0156
1.29		CN1CCN(C/C=C/Cn2cc(NC(=O)c3cnn4cccnc34)c(-c3cc(Cl)ccc3OC(F)F)n2)CC1 [Example 395, N-[3-[5-chloro-2-(difluoromethoxy)phenyl]-1-[(2E)-4-(4-methylpiperazin-1-yl)but-2-en-1-yl]-1H-pyrazol-4-yl]pyrazolo[1,5-a]pyrimidine-3-carboxamide]	0.0224
0.3		CN(C1CCN(C(=O)Cn2cc(NC(=O)c3cnn4cccnc34)c(-c3cc(Cl)ccc3OC(F)F)n2)CC1)C1COC1 [Example 459, N-(3-(5-chloro-2-(difluoromethoxy)phenyl)-1-(2-(4-(methyl(oxetan-3-yl)amino)piperidin-1-yl)-2-oxoethyl)-1H-pyrazol-4-yl)pyrazolo[1,5-a]pyrimidine-3-carboxamide]	0.0075
0.32		O=C(O)CCN1CCN(C(=O)Cn2cc(NC(=O)c3cnn4cccnc34)c(-c3cc(Cl)ccc3OC(F)F)n2)CC1 [Example 353, 3-[4-(2-[3-[5-chloro-2-(difluoromethoxy)phenyl]-4-[pyrazolo[1,5-a]pyrimidine-3-amido]-1H-pyrazol-1-yl]acetyl)piperazin-1-yl]propanoic acid]	3.61
	0.3	C[C@H](NCCn1cc(NC(=O)c2cnn3cccnc23)c(-c2cc(Cl)ccc2OC(F)F)n1)c1ccccc1 [Example 385, N-[3-[5-chloro-2-(difluoromethoxy)phenyl]-1-(2-[[(1S)-1-phenylethyl]amino]ethyl)-1H-pyrazol-4-yl]pyrazolo[1,5-a]pyrimidine-3-carboxamide]	0.163
	0.8	O=C(CN1CCCCC1)Cn1cc(NC(=O)c2cnn3cccnc23)c(-c2cc(Cl)ccc2OC(F)F)n1 [Example 418, N-(3-(5-chloro-2-(difluoromethoxy)phenyl)-1-(2-oxo-3-(piperidin-1-yl)propyl)-1H-pyrazol-4-yl)pyrazolo[1,5-a]pyrimidine-3-carboxamide]	0.0609
1.46		O=C(Nc1cn(CC(O)CN2CCOCC2)nc1-c1cc(Cl)ccc1OC(F)F)c1cnn2cccnc12 (centres unmarked) [Example 403, N-(3-(5-chloro-2-(difluoromethoxy)phenyl)-1-(2-hydroxy-3-morpholinopropyl)-1H-pyrazol-4-yl)pyrazolo[1,5-a]pyrimidine-3-carboxamide]	0.0283
0.41		CN1CCN(C2CCN(C(=O)Cn3cc(NC(=O)c4cnn5cccnc45)c(-c4cc(Cl)ccc4OC(F)F)n3)CC2)CC1=O [Example 416, N-(3-(5-chloro-2-(difluoromethoxy)phenyl)-1-(2-(4-(4-methyl-3-oxopiperazin-1-yl)piperidin-1-yl)-2-oxoethyl)-1H-pyrazol-4-yl)pyrazolo[1,5-a]pyrimidine-3-carboxamide]	0.0316
1.7		O=C(CN1CCOCC1)Cn1cc(NC(=O)c2cnn3cccnc23)c(-c2cc(Cl)ccc2OC(F)F)n1 [Example 412, N-(3-(5-chloro-2-(difluoromethoxy)phenyl)-1-(3-morpholino-2-oxopropyl)-1H-pyrazol-4-yl)pyrazolo[1,5-a]pyrimidine-3-carboxamide]	0.0395
	0.51	O=C(Nc1cn(CCNCc2cccnc2)nc1-c1cc(Cl)ccc1OC(F)F)c1cnn2cccnc12 [Example 368, N-[3-[5-chloro-2-(difluoromethoxy)phenyl]-1-[2-[(pyridin-3-ylmethyl)amino]ethyl]-1H-pyrazol-4-yl]pyrazolo[1,5-a]pyrimidine-3-carboxamide]	0.056
	0.23	C[C@@H](NCCn1cc(NC(=O)c2cnn3cccnc23)c(-c2cc(Cl)ccc2OC(F)F)n1)c1ccccc1 [Example 384, N-[3-[5-chloro-2-(difluoromethoxy)phenyl]-1-(2-[[(1R)-1-phenylethyl]amino]ethyl)-1H-pyrazol-4-yl]pyrazolo[1,5-a]pyrimidine-3-carboxamide]	0.139
0.39		COC(=O)CCN1CCN(C(=O)Cn2cc(NC(=O)c3cnn4cccnc34)c(-c3cc(Cl)ccc3OC(F)F)n2)CC1 [Example 331, methyl 3-[4-(2-[3-[5-chloro-2-(difluoromethoxy)phenyl]-4-[pyrazolo[1,5-a]pyrimidine-3-amido]-1H-pyrazol-1-yl]acetyl)piperazin-1-yl]propanoate]	0.0176
0.4		CN(C1CCN(C(=O)Cn2cc(NC(=O)c3cnn4cccnc34)c(-c3cc(Cl)ccc3OC(F)F)n2)CC1)[C@@H]1CCOC1 [Example 432, N-(3-(5-chloro-2-(difluoromethoxy)phenyl)-1-(2-(4-(methyl((R)-tetrahydrofuran-3-yl)amino)piperidin-1-yl)-2-oxoethyl)-1H-pyrazol-4-yl)pyrazolo[1,5-a]pyrimidine-3-carboxamide]	0.0326
	0.89	N#CC1CCN(C2CCN(C(=O)Cn3cc(NC(=O)c4cnn5cccnc45)c(-c4cc(Cl)ccc4OC(F)F)n3)CC2)C1 (centres unmarked) [Example 409, N-(3-(5-chloro-2-(difluoromethoxy)phenyl)-1-(2-(4-(3-cyanopyrrolidin-1-yl)piperidin-1-yl)-2-oxoethyl)-1H-pyrazol-4-yl)pyrazolo[1,5-a]pyrimidine-3-carboxamide]	0.0196
	1.6	CCOC(=O)CNC1CCN(C(=O)Cn2cc(NC(=O)c3cnn4cccnc34)c(-c3cc(Cl)ccc3OC(F)F)n2)CC1 [Example 364, ethyl 2-[[1-(2-[3-[5-chloro-2-(difluoromethoxy)phenyl]-4-[pyrazolo[1,5-a]pyrimidine-3-amido]-1H-pyrazol-1-yl]acetyl)piperidin-4-yl]amino]acetate]	0.0952
0.33		CN(C1CCN(C(=O)Cn2cc(NC(=O)c3cnn4cccnc34)c(-c3cc(Cl)ccc3OC(F)F)n2)CC1)[C@H]1CCOC1 [Example 442, N-(3-(5-chloro-2-(difluoromethoxy)phenyl)-1-(2-(4-(methyl((S)-tetrahydrofuran-3-yl)amino)piperidin-1-yl)-2-oxoethyl)-1H-pyrazol-4-yl)pyrazolo[1,5-a]pyrimidine-3-carboxamide]	0.0194

Reference: patent publication US9346815B2, “5-chloro-2-difluoromethoxyphenyl pyrazolopyrimidine compounds, compositions and methods of use thereof” (Genentech, Inc., priority 2014, dated 2016)
